# Data published in patent US20170246206A1, “Calcium Formate for Use as a Dietary Supplement” (Wisconsin Alumni Research Foundation, priority 1999, published 2017).
# Read-outs that look alike come from different tables or passages of the source.
# Assays:
# [1] = Text: Twenty 15-day-old weanling rats from Holzmann Company were placed on a an adequate synthetic diet called “Diet 11” (Suda, T., et al., J. Nutr. 100:1049-1052, 1970). This diet is supplemented with vitamins A, D, E and K as described in that paper. Therefore, these are vitamin D-sufficient animals.
# The animals were then placed on a basal diet that contains 0.02% calcium, i.e. an extremely low calcium diet. These animals served as controls. Another group were placed on the same diet containing calcium formate, providing calcium at 0.25% of the diet. Another group was supplied calcium formate at 0.47% calcium in the diet, and another group was provided 0.47% calcium in the form of calcium carbonate. Growth of the animals reflects the ability of the animals to utilize calcium. […] 57:449-468 (1955).
# Remark: listed apart in the source
# [2] = 1% Ca formate in diet, 1 week on diet
# [3] = 1% Ca formate in diet, 2 weeks on diet
# [4] = 2% Ca formate in diet, 1 week on diet
# [5] = 2% Ca formate in diet, 2 weeks on diet
# [6] = 3% Ca formate in diet, 1 week on diet
# [7] = 3% Ca formate in diet, 2 weeks on diet
smiles,measurement,setting,value
"O=C([O-])[O-].[Ca+2] [Calcium Carbonate, calcium carbonate, reference compound]",Average Body Weight ± S.E.M for 5 Rats,"[1]; 0.47% Ca in diet, day 7",48.6 ± 4.9 Grams
same,Average Body Weight ± S.E.M for 5 Rats,"[1]; 0.47% Ca in diet, day 14",80.4 ± 10.4 Grams
same,Average Body Weight ± S.E.M for 5 Rats,"[1]; 0.47% Ca in diet, day 21",126.2 ± 11 Grams
"O=C[O-].O=C[O-].[Ca+2] [Calcium Formate, calcium formate]",Serum (mean ± SEM),[2],3.25 ± .31 mg %
same,Weight,[2],229 ± 5.5
same,Serum Ca (mean ± SEM),[3],14.0 ± .51 mg %
same,Weight,[3],211 ± 3.8
same,Serum (mean ± SEM),[4],2.50 ± .32 mg %
same,Weight,[4],211 ± 6.3
same,Serum (mean ± SEM),[5],2.7 ± .24 mg %
same,Serum Ca (mean ± SEM),[5],12.8 ± .94 mg %
same,Weight,[5],198 ± 5.2
same,Difference in serum phosphorus between dose levels,2% vs 3% calcium formate in diet,little difference in serum phosphorus
same,Serum (mean ± SEM),[6],2.5 ± .20 mg %
same,Weight,[6],194 ± 6.5
same,Serum (mean ± SEM),[7],2.9 ± 0.8 mg %
same,Serum Ca (mean ± SEM),[7],12.9 ± 1.3 mg %
same,Weight,[7],150 ± 8.0
same,Serum phosphorus compared with control rats,all rats supplied with calcium formate (1-3% of diet),less serum phosphorus than control rats
same,Average Body Weight ± S.E.M for 5 Rats,"[1]; 0.25% Ca in diet, day 7",54.3 ± 4.0 Grams
same,Average Body Weight ± S.E.M for 5 Rats,"[1]; 0.25% Ca in diet, day 14",84.6 ± 5.5 Grams
same,Average Body Weight ± S.E.M for 5 Rats,"[1]; 0.25% Ca in diet, day 21",131.0 ± 5.7 Grams
same,Growth in comparison to other treatment groups,[1]; 0.25% calcium as the formate,slightly better growth
same,Average Body Weight ± S.E.M for 5 Rats,"[1]; 0.47% Ca in diet, day 7",51.0 ± 10.6 Grams
same,Average Body Weight ± S.E.M for 5 Rats,"[1]; 0.47% Ca in diet, day 14",78.0 ± 19^ Grams
same,Average Body Weight ± S.E.M for 5 Rats,"[1]; 0.47% Ca in diet, day 21",127 ± 11 Grams
same,Ability to supply calcium to experimental rats,[1]; compared with calcium carbonate,at least equal to calcium carbonate
